The text below walks through data of US7652037B2, “Methods of lowering lipid levels in a mammal” (City Of Hope, priority 2003, dated 2010).

Entries after “also recorded” stand apart in the source; their conditions may differ.

In test [1] the test system is STZ-Diabetic Rats. The test is described as follows: Kidney anatomy and histopathology (PAS, trichrome, Picrosirius red, TEM). In kind it is in vivo, rat. An excerpt: To quantitate glomerulosclerosis (defined as glomerular basement membrane thickening, mesangial hypertrophy, and capillary occlusion), kidney sections were stained with periodic acid Schiff (PAS) reagent. A total of 150 glomeruli were randomly chosen from each rat kidney (four different kidneys per treatment) and carefully graded for sclerosis, by a blinded evaluator. The degree of sclerosis in each glomerulus was graded subjectively on a scale of 1 to 4 as follows: grade 1, sclerotic area less than 25%; grade 2, sclerotic area 25-50%; grade 3, sclerotic area 51-75%; and grade 4, sclerotic area more than 75%. The glomerulosclerotic index (GSI) then was calculated using the following formula: GSI=Σ^4i=1 Fi (I), where Fi is the percentage of glomeruli in the rat with a given score of (I). See Wilkinson-Berka et al., Diabetes 51:3283-3289, 2002. To quantitate glomerulosclerosis, kidney sections were stained with periodic acid Schiff (PAS) reagent.
Cellular infiltrates were identified in the renal interstitium from 5 μm-thick kidney sections stained with PAS. Infiltrates in each kidney sample were graded as follows: + (patchy and light), ++ (patchy and dense), +++ (diffuse and dense with aggregates of neutrophils in tubules or in interstitium) also in a blinded manner. For collagen deposition staining in the kidneys, paraffin sections were randomly chosen from kidneys from each treatment group and stained with Masson's trichrome. Briefly, the sections were deparaffined, hydrated with water, and immersed in Mordant in Boiuin's solution for 10 minutes. The sections then were rinsed in water and stained with Mayer's hematoxylin for 6 minutes. After rinsing in water, Biebrich scarlet-acid fuchsin was added for 2 minutes, rinsed, phosphomolybdic-phosphotungstic solution added for 15 minutes, followed by aniline blue solution for 10 minutes. After rinsing the sections with water, glacial acetic acid was added for 20 seconds and then the slides were dehydrated with 95% ethanol. With this method, blue and red colors indicate collagen and cytoplasm staining, respectively. […]

For test [2], the system named is STZ-Diabetic Rats. The experiment in a line: Nitrotyrosine staining of kidney. The format is in vivo, rat. The procedure: Nitrotyrosine, a marker for protein oxidation, was used as an index of oxidative tissue damage caused by reactive nitrogen species. Immunohistochemical detection of nitrotyrosine was performed as reported previously (Forbes et al., Diabetes 51:3274-3282, 2002) and followed in this study with little modification. Briefly, formalin-fixed kidney sections (5 μm thick), taken from representative rats from each treatment group at 32 weeks, were mounted on slides, dewaxed and hydrated. After incubation with Proteinase K for 10 minutes, sections were incubated in 3% hydrogen peroxide for 20 minutes, blocked with normal porcine serum for 20 minutes, and then stained with commercially available rabbit polyclonal anti-nitrotyrosine antibodies for 1 hour. After rinsing with DAKO rinse buffer, sections were incubated with biotinylated anti-rabbit IgG for 25 minutes, followed by incubation with avidin-biotin horseradish peroxidase complex for 25 minutes.

As for “methylene bis(4,4′-(2-chlorophenylureidophenoxyisobutyric acid) [LR-90]”, in the test on STZ-Diabetic Rats [1], the “basement membrane thickening (TEM photographs)” value was “reduced basement membrane thickening” and the “cellular infiltrates in the renal interstitium” value is “prevented cell infiltration; also recorded: no neutrophils were detected”. Moreover, the “collagen deposited inside the glomeruli and the tubulointerstitium (Picrosirius red)” value in the test with STZ-Diabetic Rats [1] (32 weeks) is “reduced”. Moreover, in the test with STZ-Diabetic Rats [2], the “nitrotyrosine staining in renal cortical tubules” value is “decreased the overall oxidative damage”.
